US10406236B2, “Single wall nanotube constructs and uses thereof” (Sloan-Kettering Institute for Cancer Research, priority 2005, dated 2019)

Tests used:
[1] = test system: serum antibodies; experiment: Competition study of serum antibodies to SWNT; format: binding, Balb/c mice; settings: high concentrations (>0.1 mg/ml)
[2] = test system: CD8+ T cells; experiment: WT-1 peptide specific CTL responses in vivo (ELISPOT); settings: mouse
Procedure: Mouse footpads of C57BL/6 or BALB/c, depending on the peptide specificity, are injected with the various OVA constructs in the presence or absence of adjuvant (Titermax, Sigma) along with appropriate control groups. Serum from immunized animals is obtained via retro-orbital bleeding and assayed for SWNT specific Abs using the ELISA protocol described above.
HA-Multiscreen plates were coated with rat-anti-mouse IFN-g antibody (MabTech). CD8+ T cells isolated and purified from the paplitial lymph nodes of immunized animals are plated, and APCs from a non-immunized mouse are isolated, irradiated, pulsed with peptides, and added to the CD8+ T cells at an E:T ratio of 1:4. The cellular mixture is incubated overnight at 37° C. and the plates were developed the next day using an antibody against rat IgG. Spots were counted using a computer assisted video image analyzer with KS ELISPOT 4.0 software (Carol Zeiss Vision, Germany).
A few of these peptides were screened for their ability to elicit WT-1 peptide specific CTL responses in vivo using the methods described above.

[3] = test system: tumor expressing cells; settings: previous reports; cited from earlier work
[4] = test system: peptide pulsed APCs; experiment: ^51Cr cytotoxicity assay; format: cell-based, mouse; settings: E:T ratios 1:60-1:7, 4 hours
Procedure: To detect the cytotoxic nature of the activated CD8+ T cells peptide specific CD8+ cells and irradiated peptide pulsed APCs were prepared as described above. The peptide sensitized APCs were labeled with 100 μCi of ^51Cr and incubated together with the CD8+ cells at E:T ratios varying from 1:60-1:7. After incubation together for 4 hours, supernatants were harvested and measured in a gamma counter.

[5] = test system: GFP1/FFLuc1 Daudi tumor; experiment: Biodistribution and tumor targeting in disseminated lymphoma model; format: in vivo; settings: 24 h after i.v. injection, tumor-bearing scid mice
Procedure: The specific SWNT-rituximab-^111In*DOTA construct or control SWNT-HuM195-^111In*DOTA (Lintuzumab) construct was prepared by adding 111-185 MBq of acidic 111In chloride to 0.50 mg of SWNT-rituximab-DOTA or SWNT-HuM195-DOTA (50 g/L) in MFW and 0.050 mL of 3 M ammonium acetate to yield a pH 5.5 solution. The reaction mixture was maintained at ambient temperature for 30 min and then purified using a 10DG column with 1% HSA/0.9% NaCl. The radiochemical purity of SWNT-rituximab-DOTA or SWNT-HuM195-DOTA was 95% and the radiolabeled Rituximab was 98% as determined by the ITLC-SG methods described herein.
The biodistribution and tumor targeting specificity of SWNT-rituximab-^111In*DOTA was evaluated against different controls in a murine model of disseminated lymphoma (33) using the GFP1/FFLuc1 Daudi cell line. The tumor was introduced by injecting 5 million cells into each of the female C.B.-17 severe combined immunodeficiency (scid) mice (8- to 10-wk old; Taconic Farms) intravenously via the retroorbital sinus route. Tumor growth in mice was determined by BLI using a Xenogen IVIS Optical Imaging System (Xenogen Corp.). Imaging was performed on mice that received an intraperitoneal injection of 3 mg of D-Luciferin (Xenogen) per mouse. On day 28 after tumor infusion, the tumor-bearing mice were separated into 4 groups; an additional 2 groups of scid mice with no tumor were included as control. […]

[6] = test system: Daudi (CD20+, specific); settings: reference (33); cited from earlier work

O=C(O)CCCC[C@@H]1SC[C@@H]2NC(=O)N[C@@H]21 [biotin]
inhibition of serum antibodies [1]: did not

ALLPAVSSL [WTI-10]
stimulation of CD8+ T cells that cross react with the native sequence [2]: unable

AYLPAVSSL [WTI-10A]
immune response (WT-1 peptide specific CTL response in vivo) [2]: robust immune response | stimulation of CD8+ T cells that cross react with the native sequence [2]: stimulated CD8+ T cells that cross reacted with the native sequence

CMTWNQMNL [WTI-235]
stimulation of CD8+ T cells that cross react with the native sequence [2]: unable | ability to kill tumor expressing cells or to produce a successful vaccine [3]: limited ability

CMTWNQMNM [WTI-235A]
immune response (WT-1 peptide specific CTL response in vivo) [2]: robust immune response | stimulation of CD8+ T cells that cross react with the native sequence [2]: stimulated CD8+ T cells that cross reacted with the native sequence | heteroclitic response [4]: able to stimulate a heteroclitic response | killing of peptide pulsed targets by CD8+ T cells [4]: killed pulsed targets

RYFPNAPYL [WTI-126A]
heteroclitic response [4]: able to stimulate a heteroclitic response | killing of peptide pulsed targets by CD8+ T cells [4]: killed pulsed targets

SCLESQPTI [WTI-136]
stimulation of CD8+ T cells that cross react with the native sequence [2]: unable

SYLESQPTI [WTI-136A]
immune response (WT-1 peptide specific CTL response in vivo) [2]: robust immune response | stimulation of CD8+ T cells that cross react with the native sequence [2]: stimulated CD8+ T cells that cross reacted with the native sequence

[111In]Rituximab: ^111In-labeled Rituximab targeting antibody, positive control
femur % ID/g [5]: 11.4±3.32 % ID/g | immunoreactive fraction measured previously [6]: 42%±17%
